Data: patent US6576268B2, “Biologically active fraction of vegetable melanin, process for its production and its use” (priority 1998, dated 2003)

Test: SOD-like activity and IC50, chemiluminometric method (PHOTOCHEM, set FAT Berlin)
Assay type: biochemical
Conditions: fytomelanin with 10^19 spin/g
Method: To determine the SOD-like activity a chemiluminometric method using the chemiluminometer PHOTOCHEM was used, where the set FAT, Berlin for the SOD activity was used for the determination. The measurements were performed with the measuring time of 3 minutes, and the area integral of the chemiluminiscent curve was recorded. The value was recalculated to the unit SOD activity (by weight), and it represents 0.2 of the SOD activity.

SOD: superoxide dismutase, molecular weight 32000, reference enzyme
-log IC50: 8.064 | % SOD activity (relative to SOD = 100): 100.00%
